ChEMBL document CHEMBL5352493, “Dual inhibitors of ASK1 and PDK1 kinases: Design, synthesis, molecular docking and mechanism studies of N-benzyl pyridine-2-one containing derivatives as anti-fibrotic agents” (Eur J Med Chem, 2023)
Activity calls are given as the source filed them. The rule behind the calls is not given here.

Experiments:
[1] = Antiproliferative against rat NRK-49F cells measured after 48 hrs by CCK8 assay; type: toxicity, cell-based
[2] = Antiproliferative against HLF1 cells measured after 48 hrs by CCK8 assay; type: toxicity, cell-based; conditions: human, HFL1 cells (description prints HLF1)
[3] = Antiproliferative against rat HSC-T6 cells measured after 48 hrs by CCK8 assay; type: toxicity, cell-based
[4] = target: T1, Mitogen-activated protein kinase kinase kinase 5 (Homo sapiens, UniProt Q99683); experiment: Inhibition of human recombinant ASK1 using MBP as substrate preincubated for 1 hr followed by reagent addition incubated for 40 mins by ATP-Glo kinase assay
T1 sequence (Q99683 whole entry): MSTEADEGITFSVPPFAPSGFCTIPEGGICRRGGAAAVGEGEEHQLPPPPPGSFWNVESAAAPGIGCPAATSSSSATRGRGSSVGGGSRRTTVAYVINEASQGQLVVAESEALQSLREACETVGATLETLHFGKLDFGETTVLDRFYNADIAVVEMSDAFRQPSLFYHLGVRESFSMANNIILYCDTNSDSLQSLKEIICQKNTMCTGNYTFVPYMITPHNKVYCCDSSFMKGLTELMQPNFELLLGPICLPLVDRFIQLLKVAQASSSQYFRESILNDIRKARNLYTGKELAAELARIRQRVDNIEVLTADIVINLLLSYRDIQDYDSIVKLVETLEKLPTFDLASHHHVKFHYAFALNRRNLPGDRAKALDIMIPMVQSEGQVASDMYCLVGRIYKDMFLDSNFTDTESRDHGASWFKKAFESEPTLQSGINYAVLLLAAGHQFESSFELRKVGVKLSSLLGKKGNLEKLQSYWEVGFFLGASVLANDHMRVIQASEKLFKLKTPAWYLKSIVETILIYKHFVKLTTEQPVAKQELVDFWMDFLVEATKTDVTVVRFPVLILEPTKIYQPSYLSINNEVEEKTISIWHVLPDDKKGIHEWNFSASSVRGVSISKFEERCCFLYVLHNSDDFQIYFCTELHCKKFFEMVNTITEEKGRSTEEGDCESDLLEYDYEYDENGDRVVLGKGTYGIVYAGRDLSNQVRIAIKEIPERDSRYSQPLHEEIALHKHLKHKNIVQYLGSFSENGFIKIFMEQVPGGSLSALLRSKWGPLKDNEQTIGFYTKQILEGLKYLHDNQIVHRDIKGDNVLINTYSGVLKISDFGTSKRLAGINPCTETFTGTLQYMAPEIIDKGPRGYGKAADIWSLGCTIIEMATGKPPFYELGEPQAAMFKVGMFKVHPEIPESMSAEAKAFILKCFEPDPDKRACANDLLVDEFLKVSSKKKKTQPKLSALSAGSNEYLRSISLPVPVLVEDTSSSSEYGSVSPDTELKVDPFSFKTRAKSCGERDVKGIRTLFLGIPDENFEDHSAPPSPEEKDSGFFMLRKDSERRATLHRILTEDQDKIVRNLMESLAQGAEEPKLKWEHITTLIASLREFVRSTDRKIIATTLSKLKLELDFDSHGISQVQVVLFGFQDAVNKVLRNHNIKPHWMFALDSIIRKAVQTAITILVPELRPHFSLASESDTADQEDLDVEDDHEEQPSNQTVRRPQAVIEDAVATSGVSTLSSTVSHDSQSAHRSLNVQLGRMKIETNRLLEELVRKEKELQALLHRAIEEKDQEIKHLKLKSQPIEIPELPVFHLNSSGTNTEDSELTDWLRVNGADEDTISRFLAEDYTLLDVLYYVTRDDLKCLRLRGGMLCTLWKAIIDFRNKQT

[5] = Antiproliferative against human BEAS-2B cells measured after 48 hrs by CCK8 assay; type: toxicity, cell-based
HFL1 [6] = experiment: Downregulation of phosphorylated ASK1 in TGF-beta1 induced HFL1 cells at 5 to 10 uM for 24 hrs by Western blotting analysis; type: functional, cell-based; conditions: Homo sapiens, dose 5-10 µM
HFL1 [7] = experiment: Downregulation of phosphorylated p38 in TGF-beta1 induced HFL1 cells at 5 to 10 uM for 24 hrs by Western blotting analysis; type: functional, cell-based; conditions: Homo sapiens, dose 5-10 µM
HFL1 [8] = experiment: Downregulation of phosphorylated JNK in TGF-beta1 induced HFL1 cells at 5 to 10 uM for 24 hrs by Western blotting analysis; type: functional, cell-based; conditions: Homo sapiens, dose 5-10 µM
HFL1 [9] = experiment: Downregulation of phosphorylated PDK1 in TGF-beta1 induced HFL1 cells at 5 to 10 microM for 24 hrs by Western blotting analysis; type: functional, cell-based; conditions: Homo sapiens, dose 5-10 µM
HFL1 [10] = experiment: Downregulation of phosphorylated Akt in TGF-beta1 induced HFL1 cells at 10 microM for 24 hrs by Western blotting analysis; type: functional, cell-based; conditions: Homo sapiens
HFL1 [11] = experiment: Antifibrotic activity in TGF-beta1 induced HLF1 cells assessed as decrease in alpha SMA expression level measured at 5 to 10 uM after 24 hrs by Western blotting analysis; type: functional, cell-based; conditions: Homo sapiens, dose 5-10 µM
HFL1 [12] = experiment: Antifibrotic activity in TGF-beta1 induced HLF1 cells assessed as decrease in collagen-I expression level measured at 5 to 10 uM after 24 hrs by Western blotting analysis; type: functional, cell-based; conditions: Homo sapiens, dose 5-10 µM
HFL1 [13] = experiment: Antifibrotic activity in TGF-beta1 induced HLF1 cells assessed as decrease in phosphorylated smad2 level measured at 5 to 10 uM after 24 hrs by Western blotting analysis; type: functional, cell-based; conditions: Homo sapiens, dose 5-10 µM
HFL1 [14] = experiment: Antifibrotic activity in TGF-beta1 induced HLF1 cells assessed as decrease in phosphorylated smad3 level measured at 5 to 10 uM after 24 hrs by Western blotting analysis; type: functional, cell-based; conditions: Homo sapiens, dose 5-10 µM
HFL1 [15] = experiment: Induction of apoptosis in HLF1 cells assessed as decrease in antiapoptotic Bcl-2 protein at 5 to 10 uM for 24 hrs by Western blotting analysis; type: functional, cell-based; conditions: Homo sapiens, dose 5-10 µM
HFL1 [16] = experiment: Induction of apoptosis in HLF1 cells assessed as viable cells at 5 uM incubated for 24 hrs measured by annexinV-FITC/PI based flow cytometric analysis (reference value: 88.3%); type: functional; conditions: Homo sapiens, read-out: Activity
HFL1 [17] = experiment: Induction of apoptosis in HLF1 cells assessed as early apoptotic cells at 5 uM incubated for 24 hrs measured by annexinV-FITC/PI based flow cytometric analysis (reference value: 11.6%); type: functional, Homo sapiens
HFL1 [18] = experiment: Induction of apoptosis in HLF1 cells assessed as late apoptotic cells at 5 uM incubated for 24 hrs measured by annexinV-FITC/PI based flow cytometric analysis (reference value: 0.08%); type: functional, Homo sapiens
HFL1 [19] = experiment: Induction of apoptosis in HLF1 cells assessed as necrotic cells at 5 uM incubated for 24 hrs measured by annexinV-FITC/PI based flow cytometric analysis (reference value: 0%); type: functional, Homo sapiens
HFL1 [20] = experiment: Induction of apoptosis in HLF1 cells assessed as viable cells at 10 uM incubated for 24 hrs measured by annexinV-FITC/PI based flow cytometric analysis (reference value: 88.3%); type: functional; conditions: Homo sapiens, read-out: Activity
HFL1 [21] = experiment: Induction of apoptosis in HLF1 cells assessed as early apoptotic cells at 10 uM incubated for 24 hrs measured by annexinV-FITC/PI based flow cytometric analysis (reference value: 11.6%); type: functional, Homo sapiens
HFL1 [22] = experiment: Induction of apoptosis in HLF1 cells assessed as late apoptotic cells at 10 uM incubated for 24 hrs measured by annexinV-FITC/PI based flow cytometric analysis (reference value: 0.08%); type: functional, Homo sapiens
HFL1 [23] = experiment: Induction of apoptosis in HLF1 cells assessed as necrotic cells at 10 uM incubated for 24 hrs measured by annexinV-FITC/PI based flow cytometric analysis (reference value: 0%); type: functional, Homo sapiens
HFL1 [24] = experiment: Induction of apoptosis in HLF1 cells assessed as viable cells at 15 uM incubated for 24 hrs measured by annexinV-FITC/PI based flow cytometric analysis (reference value: 88.3%); type: functional; conditions: Homo sapiens, read-out: Activity
HFL1 [25] = experiment: Induction of apoptosis in HLF1 cells assessed as early apoptotic cells at 15 uM incubated for 24 hrs measured by annexinV-FITC/PI based flow cytometric analysis (reference value: 11.6%); type: functional, Homo sapiens
HFL1 [26] = experiment: Induction of apoptosis in HLF1 cells assessed as late apoptotic cells at 15 uM incubated for 24 hrs measured by annexinV-FITC/PI based flow cytometric analysis (reference value: 0.08%); type: functional, Homo sapiens
HFL1 [27] = experiment: Induction of apoptosis in HLF1 cells assessed as necrotic cells at 15 uM incubated for 24 hrs measured by annexinV-FITC/PI based flow cytometric analysis (reference value: 0%); type: functional, Homo sapiens

CC(C)n1cc(-c2cc(C(=O)Nc3cccc(-c4nncn4C4CC4)n3)c(=O)n(Cc3ccccc3F)c2)cn1
IC50 at 48 h [1]: 14.8 µM | IC50 at 48 h [2]: 9.2 µM | IC50 at 48 h [3]: 25 µM | IC50 [4]: 0.00913 µM | IC50 at 48 h [5]: 33 µM | Activity (HFL1 [6]): Active | Activity (HFL1 [7]): Active | Activity (HFL1 [8]): Active | Activity (HFL1 [9]): Dose-Dependent Effect | Activity (HFL1 [10]): Active | Activity (HFL1 [11]): Dose-Dependent Effect | Activity (HFL1 [12]): Dose-Dependent Effect | Activity (HFL1 [13]): Active | Activity (HFL1 [14]): Active | Activity (HFL1 [15]): Active | viability at 5 µM (HFL1 [16]): 80.5% | Activity (HFL1 [17]): 19.4% | Activity (HFL1 [18]): 0.092% | Activity (HFL1 [19]): 0% | viability at 10 µM (HFL1 [20]): 74.3% | Activity (HFL1 [21]): 25.6% | Activity (HFL1 [22]): 0.034% | Activity (HFL1 [23]): 0% | viability at 15 µM (HFL1 [24]): 69.9% | Activity (HFL1 [25]): 30% | Activity (HFL1 [26]): 0.069% | Activity (HFL1 [27]): 0%
